Reference: patent US5441987A, “Antifungal agent” (Merck & Co., Inc., priority 1994, dated 1995)
In brackets after ≈: the same amount, converted by molar mass.

Tests used:
[1] = test system: C. pseudotropicalis (MY 2099); assay: broth microdilution MIC/MFC assay; details: Kluyveromyces marxianus; for MIC: 24 h, read-out: Minimum Inhibitory Concentration (MIC); for MFC: read-out: Minimum Fungicidal Concentration (MFC)
Experimental: (§1) In the microbroth dilution assay, microorganisms were selected by streaking a yeast culture on Sabouraud dextrose agar (SDA) incubating for 24-48 hours at 35°-37° C., thereafter selected 3 to 5 characteristic colonies and transferring to a fresh plate and incubating under similar conditions. From the regrowth, 3 to 5 colonies were selected and suspended in 10 milliliters of YM broth (Difco) and incubated for 4 hours at 35°-37° C. shaking at 225 rpm. The 4 hour broth cultures were adjusted optically to 86% transmission resulting in a concentration of 1-5 X 10^6 cfu/ml which was further diluted 1:100 in YNBD (yeast nitrogen base with 1% dextrose) to obtain a concentration of 1-5 X 10^4 cfu/ml for use as inocula.
(§2) The compounds in column 1 were then serially diluted two-fold to yield concentrations from 128 μg/ml to 0.6 μg/ml.
(§3) The plates containing the diluted compounds were then inoculated with 75 μl/well of the appropriate microorganism and incubated for 48 hours at 35°-37° C. with MIC (minimum inhibitory concentration) determinations carried out after 24 hours of incubation. Growth and sterility controls for each organism and sterility checks for the compounds also were carried out.
(§4) After recording MICs at 24 hours, the microtiter plates were shaken gently to resuspend the cells. A 1.5 μl sample was transferred from each well of the 96-well microtiter plate to a single reservoir inoculum plate containing SDA. The inoculated SDA and corresponding microtiter plates were incubated for 24 hours at 35°-37° C. For Cryptococus neoformans, SDA plates were inoculated at 48 hours after recording MICs and incubated 48 hours before reading the MFC. MFC is the lowest concentration of compound at which either no growth or growth of ≤4 colonies occur.

[2] = test system: Botrytis cinerea; assay: in vivo protectant assay, grey mold on pepper; details: 50 ppm, evaluated after four days
[3] = test system: C. neoformans (MY 1146); assay: broth microdilution MIC/MFC assay; details: Cryptococcus neoformans; for MFC: 48 h, read-out: Minimum Fungicidal Concentration (MFC); for MIC: read-out: Minimum Inhibitory Concentration (MIC)
Experimental: as §1, §2, §3, §4

[4] = test system: C. albicans (MY 1750); assay: broth microdilution MIC/MFC assay; details: Candida albicans; for MFC: read-out: Minimum Fungicidal Concentration (MFC)
Experimental: as §1, §2, §3, §4

[5] = test system: C. guillermondii (MY 1019); assay: broth microdilution MIC/MFC assay; details: Meyerozyma guilliermondii; for MIC: 24 h, read-out: Minimum Inhibitory Concentration (MIC); for MFC: read-out: Minimum Fungicidal Concentration (MFC)
Experimental: as §1, §2, §3, §4

[6] = test system: A. fumigatus (5669); assay: broth microdilution MIC assay; details: Aspergillus fumigatus, read-out: Minimum Inhibitory Concentration (MIC)
Experimental: as §1, §2, §3

[7] = test system: Candids albicans (MY 1028); assay: broth microdilution MIC/MFC assay; details: Candida albicans; for MFC: read-out: Minimum Fungicidal Concentration (MFC)
Experimental: as §1, §2, §3, §4

[8] = test system: C. tropicalis (MY 1012); assay: broth microdilution MIC/MFC assay; details: Candida tropicalis; for MIC: 24 h, read-out: Minimum Inhibitory Concentration (MIC); for MFC: read-out: Minimum Fungicidal Concentration (MFC)
Experimental: as §1, §2, §3, §4

[9] = test system: Cryptococcus neoformans (MY 1051); assay: broth microdilution MIC/MFC assay; details: for MFC: 48 h, read-out: Minimum Fungicidal Concentration (MFC); for MIC: read-out: Minimum Inhibitory Concentration (MIC)
Experimental: as §1, §2, §3, §4

[10] = test system: Aspergillus fumigatus (MF 4839); assay: broth microdilution MIC assay; details: read-out: Minimum Inhibitory Concentration (MIC)
Experimental: as §1, §2, §3

[11] = test system: Saccharomyces cerevisiae (MY 1976); assay: broth microdilution MIC/MFC assay; details: for MIC: 24 h, read-out: Minimum Inhibitory Concentration (MIC)
Experimental: as §1, §2, §3, §4

[12] = test system: C. neoformans (MY 2062); assay: broth microdilution MIC/MFC assay; details: Cryptococcus neoformans; for MFC: 48 h, read-out: Minimum Fungicidal Concentration (MFC); for MIC: read-out: Minimum Inhibitory Concentration (MIC)
Experimental: as §1, §2, §3, §4

[13] = test system: C. parapsilosis (MY 1010); assay: broth microdilution MIC/MFC assay; details: Lodderomyces parapsilosis; for MIC: 24 h, read-out: Minimum Inhibitory Concentration (MIC); for MFC: read-out: Minimum Fungicidal Concentration (MFC)
Experimental: as §1, §2, §3, §4

[14] = test system: Plasmopara viticola; assay: in vivo protectant assay, downy mildew on grape; details: 50 ppm, evaluated after 12 days
[15] = test system: C. neoformans (MY 2061); assay: broth microdilution MIC/MFC assay; details: Cryptococcus neoformans; for MFC: 48 h, read-out: Minimum Fungicidal Concentration (MFC); for MIC: read-out: Minimum Inhibitory Concentration (MIC)
Experimental: as §1, §2, §3, §4

[16] = test system: A. fumigatus (5668); assay: broth microdilution MIC assay; details: Aspergillus fumigatus, read-out: Minimum Inhibitory Concentration (MIC)
Experimental: as §1, §2, §3

[17] = test system: Alternaria solani; assay: in vivo protectant assay, early blight on tomato; details: 50 ppm, evaluated after four days
[18] = test system: Phytophthora infestans; format: in vivo; details: 50 ppm, tomato, evaluated after four days
[19] = test system: Puccinia recondita; assay: in vivo protectant assay, wheat leaf rust on wheat; details: 50 ppm, evaluated after 10-14 days
[20] = test system: filamentous fungi; assay: filter paper disc inhibition zone assay, filamentous fungi; format: cell-based; details: 25 μl/disc, 28° C. or 37° C., 24 hours
Experimental: Compound I is also useful for inhibiting the growth of filamentous fungi. Such use may be illustrated in the following tests with Aspergillus fumigatus, Aspergillus niger, Aspergillus flavus, Fusarium oxysporum, Rhizomicor miehei, Ustilago zeae and the like. Inocula for filamentous fungi are prepared by scraping the surface of stock plates maintained on potato dextrose agar with a moistened sterile dacron swab. The spores and mycelia are then suspended in 10 milliliters of sterile potato dextrose broth and adjusted to 70 percent transmission at 660 nm. The samples to be tested for production of antifungal agent are applied to 6.2 mm. filter paper discs (25 microliter/disc) and air dried at 24° C. When the sample to be tested is crude broth, it may be centrifuged prior to application. The discs bearing the material to be tested are then applied employing sterile conditions to the seeded assay plates and the samples […] 25 percent sterile aqueous dimethylsulfoxide (25 μl/disc). The assay plates are then incubated at either 28° C. or 37° C. for 24 hours. Following incubation, the inhibition zones are measured. Growths are also noted as to appearance.

[21] = 24 h, read-out: Minimum Inhibitory Concentration (MIC)

| SMILES | MIC [1] [µg/mL] | MFC [1] [µg/mL] | MFC [3] [µg/mL] | MIC [3] [µg/mL] | MFC [4] [µg/mL] | MIC [5] [µg/mL] | MFC [5] [µg/mL] | MIC [6] [µg/mL] | MFC [7] [µg/mL] | MIC [8] [µg/mL] | MFC [8] [µg/mL] | MFC [9] [µg/mL] | MIC [9] [µg/mL] | MIC [10] [µg/mL] | MIC [11] [µg/mL] | MFC [12] [µg/mL] | MIC [12] [µg/mL] | MIC [13] [µg/mL] | MFC [13] [µg/mL] | MFC [15] [µg/mL] | other results |
| --- | --- | --- | --- | --- | --- | --- | --- | --- | --- | --- | --- | --- | --- | --- | --- | --- | --- | --- | --- | --- | --- |
| CCCCCCC(C)C1=C(O)C(=O)C2C(O)C(C)CC(O)C2C1(C)C(=O)CCO (centres unmarked) [Compound I] | 16 (≈ 39 µM) | 32 (≈ 77.9 µM) | 32 (≈ 77.9 µM) | 32 (≈ 77.9 µM) | 32 (≈ 77.9 µM) | 16 (≈ 39 µM) | 16 (≈ 39 µM) | 32 (≈ 77.9 µM) | 32 (≈ 77.9 µM) | 32 (≈ 77.9 µM) | 32 (≈ 77.9 µM) | 16 (≈ 39 µM) | 8 (≈ 19.5 µM) | 32 (≈ 77.9 µM) | 16 (≈ 39 µM) | 32 (≈ 77.9 µM) | 16 (≈ 39 µM) | 64 (≈ 156 µM) | 64 (≈ 156 µM) | 16 (≈ 39 µM) | control of Botrytis cinerea [2]: Moderate control; MIC [4, 21]: 64 µg/mL (≈ 156 µM); MIC [7, 21]: 32 µg/mL (≈ 77.9 µM); MFC ([11]; read-out: Minimum Fungicidal Concentration (MFC)): 16 µg/mL (≈ 39 µM); control of Plasmopara viticola [14]: ≤ 85%; MIC [15]: 16 µg/mL (≈ 39 µM); MIC [16]: 32 µg/mL (≈ 77.9 µM); control of Alternaria solania [17]: Moderate control; control of Phytophthora infestans [18]: up to 90%; control of Puccinia recondita [19]: Moderate control; growth inhibition of fungal organisms (inhibition zones) [20]: effectively inhibit growth |
| C[C@@H]1[C@H](O)[C@@H](C)/C=C/C=C/C=C/C=C/C=C/C=C/C=C/[C@H](O[C@@H]2O[C@H](C)[C@@H](O)[C@H](N)[C@@H]2O)C[C@@H]2O[C@](O)(C[C@@H](O)C[C@@H](O)[C@H](O)CC[C@@H](O)C[C@@H](O)CC(=O)O[C@H]1C)C[C@H](O)[C@H]2C(=O)O [Amphotericin B, reference compound] | 4 (≈ 4.33 µM) | 4 (≈ 4.33 µM) | 2 (≈ 2.16 µM) | 2 (≈ 2.16 µM) | 2 (≈ 2.16 µM) | 2 (≈ 2.16 µM) | 4 (≈ 4.33 µM) | 4 (≈ 4.33 µM) | 2 (≈ 2.16 µM) | 64 (≈ 69.3 µM) | 32 (≈ 34.6 µM) | 4 (≈ 4.33 µM) | 2 (≈ 2.16 µM) | 4 (≈ 4.33 µM) | 1 (≈ 1.08 µM) | 2 (≈ 2.16 µM) | 2 (≈ 2.16 µM) | 2 (≈ 2.16 µM) | 2 (≈ 2.16 µM) | 2 (≈ 2.16 µM) | MIC [15]: 2 µg/mL (≈ 2.16 µM); MIC [16]: 4 µg/mL (≈ 4.33 µM) |
